Data reported in ChEMBL document CHEMBL1201862, “PubChem BioAssay data set” (2004).
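Method: 48-hour compound exposure of cells in 96-well plates, five concentrations, linear interpolation of endpoints. At the GI50, growth is halved.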 Active and inactive are the calls of the source. Cut-off read from the data, not from the text of the source: active = GI50 up to about 1.1 µM and inactive = higher.

How the values were obtained:
Experiment in all cases: NCI tumour cell line growth inhibition, 48 h
UACC-257 = test system: UACC-257
MCF7 = test system: MCF7
NCI-H460 = test system: NCI-H460
KM12 = test system: KM12
SNB-75 = test system: SNB-75
HCT-15 = test system: HCT-15
ACHN = test system: ACHN
DU-145 = test system: DU-145
SF-539 = test system: SF-539
SW-620 = test system: SW-620
SR = test system: SR
UACC-62 = test system: UACC-62
PC-3 = test system: PC-3
HCT-116 = test system: HCT-116
HT-29 = test system: HT-29
SK-OV-3 = test system: SK-OV-3
U-251 = test system: U-251
MOLT-4 = test system: MOLT-4
OVCAR-5 = test system: OVCAR-5

Measured: GI50

COC(=O)C1CCC(=O)N1CN(C(C)=O)c1ccccc1Cl (centres undefined)
> 100 µM: HCT-15
inactive: UACC-257 > 100 µM | MCF7 > 100 µM | NCI-H460 > 100 µM | KM12 > 100 µM | SNB-75 > 100 µM | ACHN > 100 µM | DU-145 > 100 µM | SF-539 > 100 µM | SW-620 > 100 µM | SR > 100 µM | UACC-62 > 100 µM | PC-3 > 100 µM | HCT-116 > 100 µM | HT-29 > 100 µM | SK-OV-3 > 100 µM | U-251 > 100 µM | MOLT-4 > 100 µM | OVCAR-5 > 100 µM

Cc1cc2c(cc1C)N1C(Cl)=C3CCCCC3=C(C#N)C1N2 (centres undefined)
inactive: UACC-257 8.18 µM | MCF7 4.16 µM | NCI-H460 18 µM | KM12 9.02 µM | SNB-75 23.6 µM | ACHN 3.16 µM | DU-145 19.3 µM | SF-539 22.4 µM | SW-620 2.02 µM | SR 3.65 µM | UACC-62 2.94 µM | PC-3 13.6 µM | HCT-116 1.7 µM | HT-29 2.55 µM | SK-OV-3 18.6 µM | U-251 9.42 µM | MOLT-4 3.48 µM | OVCAR-5 21.1 µM
2.61 µM: HCT-15

COc1ccc2oc(=N)c(C(=O)Nc3cccc4ccccc34)cc2c1
inactive: UACC-257 32 µM | MCF7 5.7 µM | NCI-H460 3.95 µM | KM12 27.7 µM | SNB-75 10.2 µM | ACHN 25.5 µM | DU-145 24 µM | SF-539 15.3 µM | SW-620 7.57 µM | UACC-62 2.47 µM | PC-3 12.3 µM | HCT-116 27.7 µM | HT-29 15.1 µM | SK-OV-3 15.5 µM | U-251 13 µM | OVCAR-5 41.3 µM
1.61 µM: HCT-15
active: SR 0.29 µM

CC(C)CC(NC=O)C(=O)NC(Cc1ccccc1)NC(=O)CNC(=O)C(C)NC(=O)OC(C)(C)C (centres undefined)
inactive: MCF7 > 100 µM | NCI-H460 > 100 µM | KM12 > 100 µM | SNB-75 > 100 µM | ACHN > 100 µM | DU-145 > 100 µM | SF-539 > 100 µM | SW-620 > 100 µM | SR > 100 µM | UACC-62 > 100 µM | PC-3 > 100 µM | HCT-116 > 100 µM | HT-29 > 100 µM | SK-OV-3 > 100 µM | U-251 > 100 µM | MOLT-4 > 100 µM | OVCAR-5 > 100 µM
> 100 µM: HCT-15
